Like-named read-outs stand apart in the source and are kept apart here. One block for each compound: values may come before it.
Experiments:
[1] = system: cigarette smoke-induced cell accumulation and biomarkers in murine BALF; assay: Cigarette smoke model; assay type: in vivo, A/J mice
Method: A/J mice (males, 5 weeks old) were exposed to cigarette smoke (4% cigarette smoke, diluted with compressed air) for 30 min/day for 11 days using a Tobacco Smoke Inhalation Experiment System for small animals (Model SIS-CS; Sibata Scientific Technology, Tokyo, Japan). Test substances were administered once daily for 3 days after the final cigarette smoke exposure (intra-nasal dose comprising 35 μL of solution in 50% DMSO/isotonic saline).
At 12 hr after administration of the last dose, animals were anesthetized, the trachea was cannulated and bronchial alveolar lavage (BAL) was carried out by the instillation into and then withdawal from the lungs, of PBS (100 mL/kg). Total cell numbers in the BALF samples were measured using a haemocytometer under a phase-contrast microscope. The proportions of alveolar macrophages and neutrophils were determined by FACS analysis using anti-mouse MOMA2-FITC (macrophage) or anti-mouse 7/4 (neutrophil).
Cells were suspended in PBS and were incubated with anti-MOMA2-FITC (2 μg/mL, Catalogue no SM065F, Acris Antibodies GmbH, Herford, Germany) or anti-7/4-FITC (2 μg/mL, Catalogue no CL050F, Acris Antibodies GmbH, Herford, Germany) for 30 min at 30° C., and also counterstained with propidium iodide (2 μg/mL) to allow exclusion of necrotic cells. The cells were washed with PBS, and transferred to FACS tubes. Samples was set in a flow cytometer (ALTRA II; Beckman Coulter Japan, Tokyo, Japan), and a single-parameter FL2 [PMT2] (FITC) histogram with log x-axis was plotted to illustrate relative intensity of FITC.
Data files are stored for subsequent analysis using Kaluza analysis software (ver. 1.2) to calculate the proportion of each cell type. The levels of CXCL1(KC), MCP1, TNFα, IL-17 or osteopontin in BALF were determined using Quentikine® mouse KC, MCP1, TNFα, IL-17 or osteopontin ELISA kit (R&D systems, Inc., Minneapolis, Minn., USA). The presence of malondialdehyde was measured using OxiSelect® TBARS Assay Kit (MDA Quantitation; Cell Biolabs Inc, San Diego, Calif., USA).

PBMCs = assay: Cytostim-induced cytokine production in PBMCs; assay type: cell-based; conditions: Homo sapiens, PBMC
Method: As a means of assessing PI3Kδ-dependent cell function, cytostim-induced IL-4, IL-5, IL-13 and IFNγ production in PBMCs were evaluated by Luminex multiplex assay. All healthy volunteers were recruited by Quintiles Limited (London, UK), and blood samples were delivered to Respivert Ltd. This study was approved by the local Ethics Committee, and all subjects gave written informed consent.
PBMC suspensions (200 μL; 2×10^6 cells/mL) were added to a 96-well plate. Cells were treated with either test compounds in neat DMSO or DMSO as vehicle (2 μL) and incubated at RT for 1 hr. Cytostim (Miltentyi Biotec, Surrey, UK) was introduced at a ratio of 1:50 and the cells were incubated for 20 hr (37° C.; 5% CO2). Plates were spun at 500×g for 5 min and the supernatant collected. A high sensitivity cytokine magnetic bead kit (#HSCYTMAG-60SK, Millipore, Watford, UK) was used to measure the four analytes (IL-4, IL-5, IL-13 and IFNγ) by Luminex as follows: The magnetic antibody beads were multiplexed and incubated in a 96-well plate with standard, media only or sample (50 μL) overnight with shaking at 4° C. After washing twice with Millipore wash buffer provided in the kit using a magnetic plate washer, the beads were incubated for 1 hr with detection antibody (50 μL) with shaking at RT. A streptavidin-phycoerythrin solution provided in the kit was added for 30 min with shaking at RT. After washing, the beads were re-suspended in sheath fluid (150 μL) and analysed immediately. The Luminex system was set up to count 50 beads and the amount of each analyte in the supernatant was calculated against a standard curve. The IC50 values were determined from concentration-inhibition curves using XL-Fit (IDBS, Guildford, UK)

IFNγ-primed U937 cells = assay: Superoxide anion production assay (zymosan-induced ROS); assay type: cell-based; conditions: Homo sapiens, U-937; read-out: REC50, Zymosan-induced ROS production in IFNγ-primed U937 cells
Method: As a means of assessing PI3Kδ dependent cell function, superoxide anion production in IFNγ-primed U937 cells was evaluated by a chemiluminescence assay. The U937 cells (purchased from ATCC, Manassas, Va.) were maintained in RPMI 1640 (Invitrogen Ltd., Paisley, UK) with 10% FCS at 37° C. The cells were suspended at a density of 10^7cells/mL in 40 mL 10% FCS RPMI 1640, and treated with 20 μL of 100 μg/mL IFNγ solution (final concentration: 50 ng/mL), and incubated at 37° C., 5% CO2 for 4 days.
IFNγ-primed U937 cells were seeded at 0.2×10^6 cells/well in a 96-well plate, and pre-incubated with test compounds for 2 hr in starvation media (0.5% FCS RPMI1640-phenol red free). Zymosan A (10 mg) from Saccharomyses cerevisiae (ex Sigma-Aldlich) was resuspended in 1 mL of 150 mM NaCl and boiled at 100° C. for 15 min. After boiling, Zymosan particles were washed with 1 mL of PBS twice, and incubated with 0.5 mL of BioParticles™ opsonized reagents (Life technologies) for 60 min at 37° C. […] Chemiluminescence indicating released superoxide anion was measured every 15 min up to 60 min by luminometric measurement (Varioskan® Flash, Thermo-Fisher Scientific).
The data at 60 min after incubation was used for analysis. […] The relative EC50 values were calculated from the concentration-response curves generated by the serial dilutions of the test compounds using XL-Fit (idbs, Guildford, UK).

d-U937 cells = assay: MTT assay, cell viability; assay type: cell-based, human; conditions: 10 μg/mL
Method: PMA-differentiated U937 cells were pre-incubated with test compound (10 μg/mL) or vehicle for 4 hr in 5% FCS or 10% FCS for 24 hr. The supernatant was replaced with new media (200 μL) and MTT stock solution (10 μL, 5 mg/mL) was added to each well. After 1 hr incubation, the media were removed, 200 μL of DMSO was added to each well and the plates were shaken lightly for 1 hr prior to reading the absorbance at 550 nm. The percentage loss of cell viability was calculated for each well relative to vehicle (0.5% DMSO)-treatment.

THP1 cells = assay: Chemotaxis to MCP1; assay type: cell-based; conditions: Homo sapiens, THP-1; read-out: REC50, THP1 cell chemotaxis to MCP1
Method: As a means of assessing PI3K γ dependent cell function, THP1 cell chemotaxis to MCP-1 was evaluated using a 48 well-chemotaxis chamber. THP1 cells from a human leukemic monocyte lymphoma cell line, (purchased from ATCC Manassas, Va.) were maintained in RPMI 1640 (Invitrogen Ltd., Paisley, UK) with 10% FCS at 37° C. Cells were re-suspended in 0.5% BSA/RPM11640 (2×10^6 cells/mL) and incubated for 10 min at 37° C., 5% CO2. Cell suspension aliquots (500 μL) were then treated either with compounds in neat DMSO or with DMSO as vehicle (2.5 μL) for 1hr (37° C., 5% CO2).
MCP1 (50 nM) was prepared in 0.5% BSA/RPM11640. MCP1 solution (50 μL) was added to each well in the bottom plate of a 48-well chemotaxis chamber (AP48, NeuroProbe Inc., Gaithersburg, Md.). A polycarbonate membrane (8 μm) was mounted on the bottom chamber, and then the top plate was mounted on the bottom chamber and filter membrane. […]
A solution of MTT (50 μL) in 10% FCS phenol red-free RPM11640 was added to each well, and the plate was incubated for 2 hr (37° C., 5% CO2). Neat DMSO (100 μL) was added to each well to extract formazan formed from MTT and the plates were shaken lightly for 1 hr prior to measuring the absorbance at 595 nm (Varioskan® Flash, Thermo-Fisher Scientific). […] Relative EC50 values were determined from concentration-inhibition curves using XL-Fit (idbs, Guildford, UK).

SMILES: CCC(=O)O[C@]1(C(=O)SCF)[C@H](C)C[C@H]2[C@@H]3C[C@H](F)C4=CC(=O)C=C[C@]4(C)[C@@]3(F)[C@@H](O)C[C@@]21C [fluticasone propionate, reference compound]
effect as monotherapy in the cigarette smoke model ([1]; dose used for co-administration with compound (I)): lacks any significant effect as monotherapy

EC50 (IFNγ-primed U937 cells): 143 nM | EC50 (THP1 cells): > 14200 nM
SMILES: Nc1ncnc2c1c(-c1cc(O)cc(F)c1)nn2Cc1nc2cccc(C#CCOCCOCCO)c2c(=O)n1Cc1ccccc1C(F)(F)F [Compound (Ia), 2-((4-Amino-3-(3-fluoro-5-hydroxyphenyl)-1H-pyrazolo[3,4-d]pyrimidin-1-yl)methyl)-5-(3-(2-(2-hydroxyethoxy)ethoxy)prop-1-yn-1-yl)-3-(2-(trifluoromethyl)benzyl)quinazolin-4(3H)-one]
IC50 (PBMCs; read-out: IC50, Cytostim-induced IFNγ in PBMCs): 60.8 nM | IC50 (PBMCs; read-out: IC50, Cytostim-induced IL-4 in PBMCs): 674 nM | IC50 (PBMCs; read-out: IC50, Cytostim-induced IL-5 in PBMCs): 14.5 nM | IC50 (PBMCs; read-out: IC50, Cytostim-induced IL-13 in PBMCs): 6.1 nM | Cell Viability MTT Assay in d-U937 cells at 4 hr (d-U937 cells; 4 hr): −ve (−ve indicates a value of <30% inhibition at 10 μg/mL) | Cell Viability MTT Assay in d-U937 cells at 24 hr (d-U937 cells; 24 hr): −ve (−ve indicates a value of <30% inhibition at 10 μg/mL)

SMILES: C[C@@H]1C[C@H]2[C@@H]3CCC4=CC(=O)C=C[C@]4(C)[C@@]3(F)[C@@H](O)C[C@]2(C)[C@@]1(O)C(=O)CO [dexamethasone, reference compound]
activity in the cigarette smoke model ([1]; 0.3-10 mg/kg, p.o.): inactive

From patent publication US20170334919A1, “2-((4-AMINO-3-(3-FLUORO-5-HYDROXYPHENYL)-1H-PYRAZOLO[3,4-D]PYRIMIDIN-1 -YL)METHYL)-3-(2-(TRIFLUORO-MET HYL)BENZYL)QUINAZOLIN-4(3H)-ONE DERIVATIVES AND THEIR USE AS PHOSPHOINOSITIDE 3-KINASE INHIBITORS” (RESPIVERT LTD., priority 2013, published 2017)
